# From article PMC7822874, “Chemoprotective antimalarials identified through quantitative high-throughput screening of Plasmodium blood and liver stage parasites” (Scientific Reports, 2021)
# System: Plasmodium falciparum Dd2 asexual blood stage parasites
# Experiment: microbe, parasite or virus in culture
# Parameters: species or system Plasmodium falciparum Dd2 in human erythrocytes; single determination (one 11-point concentration-response curve)
# Settings: Plasmodium falciparum, DD2, Erythrocyte, 72 h; read-out: AC50
row,Structure (SMILES),AC50
1,COc1ccccc1CN1CCOCC2(C1)CN([S+](=O)([O-])c1ccccc1)C2 [NCGC00419002-01],12.2 µM
2,COc1ccccc1-c1n[nH]c2ncc(-c3cnn(C)c3)nc12 [NCGC00419074-01],17.2 µM
3,COc1ccc(-c2n[nH]c3ncc(-c4cccnc4)nc23)cc1F [NCGC00419143-01],3.85 µM
4,COc1ccc(-c2n[nH]c3ncc(-c4ccc([S+](C)(=O)[O-])cc4)nc23)c(C)c1 [NCGC00419180-01],15.3 µM
5,O=C1c2cc(N3CCOCC3)nc(-c3ccccc3)c2CN1Cc1ccccc1 [NCGC00419273-01],21.7 µM
6,CN1CCC2(C1)CN(Cc1ccccc1)c1ccc(C(=O)Nc3ccc(F)cc3)cc12 (stereo not shown) [NCGC00419355-01],19.3 µM
7,CN1CC2(CCCN(CC3CC3)C2)c2cc(C(=O)NCCOc3ccccc3)ccc21 (stereo not shown) [NCGC00419362-01],17.2 µM
8,CC(C)(Oc1nn(CC2CC2)c2ccc(CN3CCCC3)cc12)C(N)=O [NCGC00419502-01],13.7 µM
9,CC(C)CNC(=O)C(C)(C)Oc1nn(CC2CC2)c2ccc(CN3CCCC3)cc12 [NCGC00419534-01],19.3 µM
10,CN1CCN(C(=O)C(C)(C)Oc2nn(Cc3cccc(Cl)c3)c3ccccc23)CC1 [NCGC00419545-01],7.69 µM
11,COC1CCN(C(=O)C(C)(C)Oc2nn(CC3CC3)c3ccc(CN4CCCC4)cc23)CC1 [NCGC00419576-01],9.44 µM
12,COCc1ccc2c(c1)c(OC(C)(C)C(=O)N1CCOCC1)nn2Cc1cccc(OC)c1 [NCGC00419580-01],8.41 µM
13,CC(C)(Oc1nn(Cc2cccc(Cl)c2)c2ccccc12)C(=O)NCCN1CCOCC1 [NCGC00419620-01],5.31 µM
14,COCc1ccc2c(c1)c(OC(C)(C)C(=O)N1CCN(CCO)CC1)nn2Cc1ccccc1 [NCGC00419658-01],9.44 µM
15,COc1cc2c(cc1OCc1ccccc1)N([S+](=O)([O-])c1cccnc1)CC21CCN(C)CC1 [NCGC00419860-01],10.6 µM
16,COc1cc2c(cc1OCc1cccnc1)N(C(=O)c1ccc(Oc3ccccc3)cc1)CC21CCN(CC(=O)O)CC1 [NCGC00419910-01],5.96 µM
17,CC(C)c1ccc(CC(=O)N2CCCc3ncc(C(=O)NCCc4c[nH]c5ccccc45)cc32)cc1 [NCGC00420032-01],15 µM
18,COc1cccc(CC(=O)N2CCCn3nc(C)c(-c4ccccc4OCc4ccccc4)c32)c1 [NCGC00420361-01],9.44 µM
19,Cc1nn2c(c1-c1ccccc1[S+](C)(=O)[O-])N(CCC(C)C)CCC2 [NCGC00420381-01],9.68 µM
20,CC(C)C(=O)NCC1CN(Cc2ccccc2)C(=O)c2c(ccnc2-c2ccc(OCC(=O)O)cc2)O1 (stereo not shown) [NCGC00420601-01],2.11 µM
21,COc1ccc(OC)c([S+](=O)([O-])NC[C@H]2C[C@@H]3CCN2C[C@@H]3c2cc(-c3ccc(F)cc3)nn2C)c1 [NCGC00420960-01],6.68 µM
22,COc1ccc(-c2cc(C[C@@H]3CC[C@H](O)[C@@H](CNCc4ccccc4OC)O3)no2)cc1 [NCGC00421057-01],3.44 µM
23,O=C(NC[C@H]1C[C@@H]2CC[N@]1C[C@@H]2CN1CCC(Cc2ccccc2)CC1)c1ccccc1 [NCGC00421103-01],7.69 µM
24,COc1ccc(C(=O)Nc2nc3c(s2)C[C@@H]2[C@](C)(CO)[C@H](O)CC[C@@]2(C)[C@@H]3CC(=O)NCc2ccco2)cc1 [NCGC00421299-01],2.66 µM
25,COC(=O)[C@@H]1Cc2c([nH]c3ccccc23)[C@H]2C[C@H](N3CCCCC3)C[C@@H](c3ccccc3F)N21 [NCGC00421326-01],5.96 µM
26,CC1=C[C@@H](CN2CCC(C)CC2)[C@H](C(C)C)C[C@H]1Cc1nnc(-c2cccnc2)o1 [NCGC00421463-01],15.3 µM
27,COCCN1C(=O)c2ccccc2C(C(=O)Nc2nc3ccccc3[nH]2)C12CCCCC2 (stereo not shown) [NCGC00423176-01],4.73 µM

row,Structure (SMILES),AC50
1,Cc1nnc(NC(=O)C2c3ccccc3C(=O)N(CC(C)C)C23CCCCC3)s1 (stereo not shown) [NCGC00423223-01],15 µM
2,CC(C)CN1C(=O)c2ccccc2C(C(=O)Nc2nccs2)C12CCCC2 (stereo not shown) [NCGC00423343-01],8.41 µM
3,COCCN1C(=O)c2ccccc2C(C(=O)Nc2nc3ccccc3[nH]2)C12CCCC2 (stereo not shown) [NCGC00423488-01],4.22 µM
4,O=C(Nc1nccs1)C1c2ccccc2C(=O)N(C2CCCC2)C12CCCC2 (stereo not shown) [NCGC00423502-01],4.22 µM
5,CCc1nc(NC(=O)C2c3ccccc3C(=O)N(CCOC)C23CCCC3)sc1C (stereo not shown) [NCGC00423528-01],5.96 µM
6,O=C(N[C@H](c1ccccn1)[C@H]1C[C@H](O)C1)c1cc(=O)n(-c2ccccc2)[nH]1 [NCGC00423856-01],9.44 µM
7,COc1ccc(-c2ccccc2NC(=O)C2CCCN(Cc3c(O)cccc3OC)C2)cc1 (stereo not shown) [NCGC00425458-01],2.11 µM
8,O=C(Nc1ccc2c(N3CCCC3)ncnc2c1)c1ccc(Br)cc1 [NCGC00425477-01],4.73 µM
9,O=C(Nc1ccc2c(N3CCCCC3)ncnc2c1)c1ccc(F)c(F)c1 [NCGC00425519-01],4.73 µM
10,O=C(Nc1ccc2c(N3CCOCC3)ncnc2c1)c1cccc(Cl)c1 [NCGC00425551-01],4.73 µM
11,COc1cc(F)ccc1CNCc1cccnc1N1CCOCC1 [NCGC00425822-01],10.6 µM
12,CN(Cc1ccc(-n2cccn2)cc1)CC1CCN(CCc2ccc(F)cc2)CC1 [NCGC00425928-01],10.6 µM
13,COc1ccc(CN2CCC(CO)(CCCc3ccccc3)CC2)c(Cl)c1OC [NCGC00426399-01],8.41 µM
14,CN(Cc1ccccc1)Cc1ccccc1OCC(O)CN1CCCCC1 (stereo not shown) [NCGC00426411-01],1.5 µM
15,Cc1ccc(NC(=O)c2cnc(-c3ccccc3)nc2-c2ccncc2)c(Br)c1 [NCGC00426434-01],9.44 µM
16,Cc1cc(CN2CCC(CO)(Cc3ccccc3Cl)CC2)cc(C)c1O [NCGC00426527-01],16.8 µM
17,OCc1ccc(CN2CCCC(CCc3c(F)cccc3F)C2)o1 (stereo not shown) [NCGC00426759-01],4.22 µM
18,O=C(CCC1CCN(Cc2cccc3c2OCO3)CC1)NCc1cccc(C(F)(F)F)c1 [NCGC00426823-01],3.76 µM
19,COCCNC(=O)c1ccc(OC2CCN(C/C=C/c3ccc(F)cc3)CC2)c(Cl)c1 [NCGC00426935-01],10.6 µM
20,O=C(c1ccccc1OCC1CCCN(Cc2ccncc2F)C1)N1CCCCC1 (stereo not shown) [NCGC00427046-01],10.6 µM
21,O=C(c1ccccc1OCC1CCCN(Cc2ccncc2F)C1)N1CCCC1 (stereo not shown) [NCGC00427122-01],10.6 µM
22,Cn1cc(CN2CCCC(COc3ccccc3C(=O)N3CCCC3)C2)c2ccccc21 (stereo not shown) [NCGC00427140-01],9.44 µM
23,CCn1cc(CN2CCCC(COc3ccccc3C(=O)N3CCCC3)C2)c2ccccc21 (stereo not shown) [NCGC00427142-01],8.41 µM
24,O=C(NC1CC1)c1ccccc1OCC1CCCN(Cc2cccc3[nH]ccc23)C1 (stereo not shown) [NCGC00427156-01],5.96 µM
25,O=C(NCC1CCCN(Cc2cccc(-c3ccco3)c2)C1)c1cccs1 (stereo not shown) [NCGC00427501-01],6.68 µM
26,COc1cccc(CN2CCCC(NCc3cc(C)ccc3-n3cccn3)C2)c1 (stereo not shown) [NCGC00427605-01],2.99 µM
27,OC(COc1ccccc1CNCCc1ccccc1)CN1CCSCC1 (stereo not shown) [NCGC00427853-01],2.11 µM

row,Structure (SMILES),AC50
1,O=C(CCC1CCCN(Cc2cccn2-c2cccnc2)C1)Nc1ccccc1F (stereo not shown) [NCGC00427855-01],6.68 µM
2,Cc1cccc(CNCc2ccccc2OCC(O)CN2CCSCC2)c1 (stereo not shown) [NCGC00428382-01],1.5 µM
3,CCOC(=O)C1(Cc2ccc(Cl)cc2)CCN(Cc2ccc(OC)cc2O)CC1 [NCGC00428386-01],0.188 µM
4,O=C(CCC[C@H]1NC[C@@H]2C[C@H]1CN(Cc1ccccc1)C2)NCCCN1CCCc2ccccc21 [NCGC00428635-01],10.6 µM
5,COc1cccc(CN2CCCC(N3CCN(c4cccc(C(F)(F)F)c4)CC3)C2)c1O (stereo not shown) [NCGC00428830-01],0.841 µM
6,COc1ccc(CNCc2ccc(C)s2)cc1OCC(O)CN1CCCCC1 (stereo not shown) [NCGC00428936-01],9.44 µM
7,O=C(NC1CCCC1)c1ccc(OC2CCN(CCCC(F)(F)F)CC2)c(Cl)c1 [NCGC00429036-01],9.44 µM
8,O=C(c1ccc(OC2CCN(Cc3c[nH]c4ccccc34)CC2)cc1)N1CCCCC1 [NCGC00429064-01],15 µM
9,CC(=O)Nc1ccc2nnc(-c3ccc(C(=O)N4CCCCCC4)cc3)n2c1 [NCGC00429830-01],8.41 µM
10,CCC(=O)Nc1ccc2nnc(-c3ccc(C(=O)Nc4ccc5c(c4)OCCO5)cc3)n2c1 [NCGC00429833-01],7.5 µM
11,CCN1CCN(C(=O)c2ccc(-c3nnc4ccc(NC(=O)C5CC5)cn34)cc2)CC1 [NCGC00429842-01],6.68 µM
12,COc1ccc(NC(=O)c2ccc(-c3nnc4ccc(NC(=O)C5CC5)cn34)cc2)cc1 [NCGC00429845-01],2.66 µM
13,CCOc1ccc(NC(=O)c2ccc(-c3nnc4ccc(NC(=O)C5CC5)cn34)cc2)cc1 [NCGC00429851-01],2.99 µM
14,CC(C)(C)NC(=O)c1ccc(-c2nnc3ccc(NC(=O)C4CC4)cn23)cc1 [NCGC00429854-01],9.44 µM
15,CCN(CC)C(=O)c1ccc(-c2nnc3ccc(NC(=O)C4CC4)cn23)cc1 [NCGC00429860-01],2.99 µM
16,COc1cccc(NC(=O)c2ccc(-c3nnc4ccc(NC(=O)C5CCC5)cn34)cc2)c1 [NCGC00429881-01],3.76 µM
17,COc1ccc(NC(=O)c2ccc(-c3nnc4ccc(NC(=O)C5CCC5)cn34)cc2)cc1 [NCGC00429884-01],4.22 µM
18,O=C(NCCc1cccnc1)c1ccc(-c2nnc3ccc(NC(=O)C4CCC4)cn23)cc1 [NCGC00429899-01],6.68 µM
19,O=C(NCCc1ccncc1)c1ccc(-c2nnc3ccc(NC(=O)C4CCC4)cn23)cc1 [NCGC00429902-01],2.99 µM
20,O=C(NCCN1CCCCC1)c1ccc(-c2nnc3ccc(NC(=O)C4CCC4)cn23)cc1 [NCGC00429914-01],13.3 µM
21,CCOC(=O)C1(Cc2cccc(Cl)c2)CCCNC1 (stereo not shown) [NCGC00430131-01],8.41 µM
22,CCOC(=O)C1CCN(C(=O)c2cc3c(n2C)CCN(Cc2ccccc2)C3)CC1 [NCGC00430564-01],10.6 µM
23,COc1cccc(CN2CCc3c(cc(C(=O)NCc4ccccn4)n3C)C2)c1 [NCGC00430584-01],15 µM
24,COc1ccc(CC(=O)NCc2cc(C)cc3c(C)c(C)[nH]c23)c(OC)c1 [NCGC00431513-01],8.41 µM
25,Cc1cccc(-c2cc(C3CCN([S+](=O)([O-])c4cccc(C#N)c4)CC3)[nH]n2)c1 [NCGC00433033-01],15 µM
